# Laboratory results: patent US20240308960A1 (Sumitomo Pharma Co., Ltd., priority 2021, published 2024)
# Target: T1, Human orexin receptor type 2 (Homo sapiens, UniProt O43614)
# T1 sequence (O43614 1-444): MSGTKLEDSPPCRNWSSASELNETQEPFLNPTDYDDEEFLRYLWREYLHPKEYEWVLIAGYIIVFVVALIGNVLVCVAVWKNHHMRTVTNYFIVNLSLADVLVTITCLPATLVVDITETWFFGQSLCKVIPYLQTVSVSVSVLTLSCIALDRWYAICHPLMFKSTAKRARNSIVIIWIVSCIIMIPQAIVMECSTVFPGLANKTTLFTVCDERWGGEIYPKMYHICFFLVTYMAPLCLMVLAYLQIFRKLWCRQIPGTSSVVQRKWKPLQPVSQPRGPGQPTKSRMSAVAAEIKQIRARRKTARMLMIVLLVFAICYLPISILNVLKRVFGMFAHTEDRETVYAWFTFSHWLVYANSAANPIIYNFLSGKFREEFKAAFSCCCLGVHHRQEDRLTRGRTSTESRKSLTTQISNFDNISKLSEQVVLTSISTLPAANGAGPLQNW
# Experiment: Test Example 1: agonist activity for orexin receptor type 2 (aequorin luminescence, intracellular calcium mobilization)
# Conditions: compound 10 μm; CHO cells transiently expressing human orexin receptor type 2 and apoaequorin; relative percentage of luminescence for the luminescence (100%) of Orexin A (100 μM)
row,SMILES,Agonist Activity (%)
1,"CC(C)N1CCN(c2cccc(F)c2NC(=O)N2CCC(C)(c3noc(C(F)(F)F)n3)CC2)CC1 [Example 24, N-{2-fluoro-6-[4-(propan-2-yl)piperazin-1-yl]phenyl}-4-methyl-4-[5-(trifluoromethyl)-1,2,4-oxadiazol-3-yl]piperidine-1-carboxamide]",127%
2,"COc1cccc(N2CCN(C(C)C)CC2)c1NC(=O)N1CCC(C)(c2noc(C(F)(F)F)n2)CC1 [Example 25, N-{2-methoxy-6-[4-(propan-2-yl)piperazin-1-yl]phenyl}-4-methyl-4-[5-(trifluoromethyl)-1,2,4-oxadiazol-3-yl]piperidine-1-carboxamide]",136%
3,"CC(C)N1CCN(c2cccc(F)c2NC(=O)N2CCC(Oc3ccccc3)CC2)CC1 [Example 27, N-{2-fluoro-6-[4-(propan-2-yl)piperazin-1-yl]phenyl}-4-phenoxypiperidine-1-carboxamide]",129%
4,"Cc1cccc(C2CCN(C(=O)Nc3c(F)cccc3N3CCN(C(C)C)CC3)CC2)c1 [Example 29, N-{2-fluoro-6-[4-(propan-2-yl)piperazin-1-yl]phenyl}-4-(3-methylphenyl)piperidine-1-carboxamide]",77%
5,"Cc1ccc(C2CCN(C(=O)Nc3ccccc3C3CCN(C(C)C)CC3)CC2)cc1.Cl [Example 31, 4-(4-methylphenyl)-N-{2-[1-(propan-2-yl)piperidin-4-yl]phenyl}piperidine-1-carboxamide hydrochloride]",164%
6,"CC(C)N1CCN(c2cccc(F)c2NC(=O)N2C3CCC2CC(c2nc(C4CC4)no2)C3)CC1 (centres unmarked) [Example 32, 3-(3-cyclopropyl-1,2,4-oxadiazol-5-yl)-N-{2-fluoro-6-[4-(propan-2-yl)piperazin-1-yl]phenyl}-8-azabicyclo[3.2.1]octane-8-carboxamide]",30%
7,"Cc1ccc(C2CCN(C(=O)Nc3c(C(=O)N(C)C)cccc3N3CCN(C(C)C)CC3)CC2)cc1 [Example 33, N-{2-(dimethylcarbamoyl)-6-[4-(propan-2-yl)piperazin-1-yl]phenyl}-4-(4-methylphenyl)piperidine-1-carboxamide]",150%
8,"Cc1ccc(C2CCN(C(=O)Nc3c(N4CCN(C(C)C)CC4)cccc3C(F)(F)F)CC2)cc1 [Example 34, 4-(4-methylphenyl)-N-{2-[4-(propan-2-yl)piperazin-1-yl]-6-(trifluoromethyl)phenyl}piperidine-1-carboxamide]",161%
9,"Cc1ccc(C2CCN(C(=O)Nc3c(Cl)cccc3N3CCN(C(C)C)CC3)CC2)cc1 [Example 35, N-{2-chloro-6-[4-(propan-2-yl)piperazin-1-yl]phenyl}-4-(4-methylphenyl)piperidine-1-carboxamide]",163%
10,"CC(C)N1CCN(c2cccc(F)c2NC(=O)N2CCC(c3ccccn3)CC2)CC1 [Example 36, N-{2-fluoro-6-[4-(propan-2-yl)piperazin-1-yl]phenyl}-4-(pyridin-2-yl)piperidine-1-carboxamide]",123%
11,"Cc1ccccc1C1CCN(C(=O)Nc2c(F)cccc2N2CCN(C(C)C)CC2)CC1 [Example 37, N-{2-fluoro-6-[4-(propan-2-yl)piperazin-1-yl]phenyl}-4-(2-methylphenyl)piperidine-1-carboxamide]",47%
12,"COC(=O)c1cccc(N2CCN(C(C)C)CC2)c1NC(=O)N1CCC(c2ccc(C)cc2)CC1 [Example 38, methyl 2-{[4-(4-methylphenyl)piperidine-1-carbonyl]amino}-3-[4-(propan-2-yl)piperazin-1-yl]benzoate]",119%
13,"Cc1ccc(C2CCN(C(=O)Nc3c(F)cccc3C3CCN(C(C)C)CC3)CC2)cc1 [Example 39, N-{2-fluoro-6-[1-(propan-2-yl)piperidin-4-yl]phenyl}-4-(4-methylphenyl)piperidine-1-carboxamide]",106%
14,"CC(C)c1ccc(C2CCN(C(=O)Nc3c(F)cccc3N3CCN(C(C)C)CC3)CC2)cc1 [Example 40, N-{2-fluoro-6-[4-(propan-2-yl)piperazin-1-yl]phenyl}-4-[4-(propan-2-yl)phenyl]piperidine-1-carboxamide]",122%
15,"Cc1ccc(C2CC3CCC(C2)N3C(=O)Nc2c(F)cccc2N2CCN(C(C)C)CC2)cc1 (centres unmarked) [Example 41, N-{2-fluoro-6-[4-(propan-2-yl)piperazin-1-yl]phenyl}-3-(4-methylphenyl)-8-azabicyclo[3.2.1]octane-8-carboxamide]",47%
16,"Cc1ccc(C2CCN(C(=O)Nc3c(F)cccc3C3=CCN(C(C)C)CC3)CC2)cc1 [Example 42, N-{2-fluoro-6-[1-(propan-2-yl)-1,2,3,6-tetrahydropyridin-4-yl]phenyl}-4-(4-methylphenyl)piperidine-1-carboxamide]",128%
17,"CC(C)N1CCC(c2cccc(F)c2NC(=O)N2CCC(C)(c3noc(C4CC4)n3)CC2)CC1 [Example 43, 4-(5-cyclopropyl-1,2,4-oxadiazol-3-yl)-N-{2-fluoro-6-[1-(propan-2-yl)piperidin-4-yl]phenyl}-4-methylpiperidine-1-carboxamide]",135%
18,"CC(C)N1CC=C(c2cccc(F)c2NC(=O)N2CCC(C)(c3noc(C4CC4)n3)CC2)CC1 [Example 44, 4-(5-cyclopropyl-1,2,4-oxadiazol-3-yl)-N-{2-fluoro-6-[1-(propan-2-yl)-1,2,3,6-tetrahydropyridin-4-yl]phenyl}-4-methylpiperidine-1-carboxamide]",143%
19,"CC(C)N1CCN(c2cccc(F)c2NC(=O)N2CCC(C)(c3noc(C4CC4)n3)CC2)CC1 [Example 45, 4-(5-cyclopropyl-1,2,4-oxadiazol-3-yl)-N-{2-fluoro-6-[4-(propan-2-yl)piperazin-1-yl]phenyl}-4-methylpiperidine-1-carboxamide]",127%
20,"Cc1ccc(C2CCN(C(=O)Nc3c(F)cccc3N3CCN(C(C)C)CC3)CC2)nc1 [Example 46, N-{2-fluoro-6-[4-(propan-2-yl)piperazin-1-yl]phenyl}-4-(5-methylpyridin-2-yl)piperidine-1-carboxamide]",49%
21,"COc1cccc(C2=CCN(C(C)C)CC2)c1NC(=O)N1CCC(c2ccc(C)cc2)CC1 [Example 47, N-{2-methoxy-6-[1-(propan-2-yl)-1,2,3,6-tetrahydropyridin-4-yl]phenyl}-4-(4-methylphenyl)piperidine-1-carboxamide]",165%
22,"COc1cccc(C2CCN(C(C)C)CC2)c1NC(=O)N1CCC(c2ccc(C)cc2)CC1 [Example 48, N-{2-methoxy-6-[1-(propan-2-yl)piperidin-4-yl]phenyl}-4-(4-methylphenyl)piperidine-1-carboxamide]",146%
23,"CC(C)N1CCC(c2cccc(F)c2NC(=O)N2CCC(C)(c3nc4ccccc4o3)CC2)CC1 [Example 49, 4-(1,3-benzoxazol-2-yl)-N-{2-fluoro-6-[1-(propan-2-yl)piperidin-4-yl]phenyl}-4-methylpiperidine-1-carboxamide]",196%
24,"CC(C)N1CC=C(c2cccc(F)c2NC(=O)N2CCC(C)(c3nc4ccccc4o3)CC2)CC1 [Example 50, 4-(1,3-benzoxazol-2-yl)-N-{2-fluoro-6-[1-(propan-2-yl)-1,2,3,6-tetrahydropyridin-4-yl]phenyl}-4-methylpiperidine-1-carboxamide]",187%
25,"CC(C)N1CCC(c2cccc(F)c2NC(=O)N2CCC(c3cc(C4CC4)on3)CC2)CC1 [Example 51, 4-(5-cyclopropyl-1,2-oxazol-3-yl)-N-{2-fluoro-6-[1-(propan-2-yl)piperidin-4-yl]phenyl}piperidine-1-carboxamide]",151%
26,"CC(C)N1CCN(c2cccc(F)c2NC(=O)N2CCC(c3cc(C4CC4)on3)CC2)CC1 [Example 52, 4-(5-cyclopropyl-1,2-oxazol-3-yl)-N-{2-fluoro-6-[4-(propan-2-yl)piperazin-1-yl]phenyl}piperidine-1-carboxamide]",155%
27,"CC(C)N1CCC(c2cccc(F)c2NC(=O)N2CCC(C)(c3cc(C4CC4)on3)CC2)CC1 [Example 53, 4-(5-cyclopropyl-1,2-oxazol-3-yl)-N-{2-fluoro-6-[1-(propan-2-yl)piperidin-4-yl]phenyl}-4-methylpiperidine-1-carboxamide]",140%
28,"CC(C)N1CCN(c2cccc(F)c2NC(=O)N2CCC(C)(c3cc(C4CC4)on3)CC2)CC1 [Example 54, 4-(5-cyclopropyl-1,2-oxazol-3-yl)-N-{2-fluoro-6-[4-(propan-2-yl)piperazin-1-yl]phenyl}-4-methylpiperidine-1-carboxamide]",140%
29,"CC(C)N1CC=C(c2cccc(F)c2NC(=O)N2CCC(C)(c3cc(C4CC4)on3)CC2)CC1 [Example 55, 4-(5-cyclopropyl-1,2-oxazol-3-yl)-N-{2-fluoro-6-[1-(propan-2-yl)-1,2,3,6-tetrahydropyridin-4-yl]phenyl}-4-methylpiperidine-1-carboxamide]",154%
